According to patent US20240165164A1, “STEM CELLS FOR USE IN REDUCING THE IMMUNE RESPONSE FOLLOWING ORGAN TRANSPLANTATION” (Amniotics AB, priority 2021, published 2024):

Key:
[1] = system: human Peripheral Blood Mononuclear Cells (PBMCs); assay: PBMC co-culture: cytokine analysis after 24 hours of activation (Luminex); type: cell-based
Description: 100 μl PBMCs were added per well. […] See also FIG. 28.
Supernatant (24 hours incubation) was analysed for cytokines using the 12-plex LXSAHM-12 Luminex kit. All reagents, standard and samples were prepared at room temperature and according to manufacturer's instruction. Briefly, 50 μl of standard or sample was added to wells. Microparticles were added to samples and standard and samples were incubated for 2 hours at room temperature on a horizontal orbital shaker (800 rpm). Plate was washed 3× in washing buffer using a magnetic plate. Biotin-antibody was added and incubated dark for 1 hour at room temperature on a horizontal orbital shaker (800 rpm). Plate was washed 3× in washing buffer using a magnetic plate. Streptavidin-PE was added to each well and incubated dark at room temperature on a horizontal orbital shaker (800 rpm) for 30 minutes. Plate was washed 3× in washing buffer using a magnetic plate. Microparticles were resuspended in 100 μl washing buffer, incubated for 2 minutes on a horizontal orbital shaker (800 rpm). Samples were analysed on a Bio-Rad Luminex analyzer.

[2] = system: human Peripheral Blood Mononuclear Cells (PBMCs); assay: PBMC co-culture: proliferation and cell composition after 72 hours of activation (FACS analysis after CFSE labeling)
Description: (§1) Freshly isolated human PBMCs, pooled from three donors, were activated with anti-CD3/anti-CD28 at 10 μg/ml and 5 μg/ml respectively in presence of MSCs ex vivo for 24 or 72 hours. Following activation, cells were analysed for effects on cellular composition after 24 hours and for effects on cellular composition and cell proliferation using CFSE after 72 hours. In addition, supernatants collected after 24 hours of activation were analysed for cytokine levels using Luminex.
(§2) Peripheral Blood Mononuclear Cells (PBMCs) were isolated from leucocyte concentrate from three different donors (acquired from Blodcentralen, Lunds Universitetssjukhus, Lund, Sweden) through gradient centrifugation at 400×g for 40 minutes using Ficoll. Red blood cells (RBCs) were lysed using BD Pharmlyse buffer 10× diluted in milliQ water for 3 minutes at room temperature (RT). Cells were washed and the isolated PBMCs were pooled. Cell concentration was determined using a Scepter cell counter (Millipore Merck, MA. USA). Cells were diluted to 1×10^7 cells/ml in PBS. Pooled PBMCs were split into 2 different tubes. Cells in tube 1 was stained with CFSE at 5 µM for 5 minutes (dark, RT). CFSE stained cells were washed with an equal volume of FBS to stop the reaction and washed again with PBS. Cells in tube two was left in PBS.
(§3) MSCs (donor 1, donor 2, donor 3, and AD-MSC control cells) were provided in 8 different tubes, two for each cell type (in different medias (M3 and M4). All cells (PBMCs and MSCs) were diluted in the two different cell culture media (M3 and M4) to a final concentration of 2*10^6 cells/ml. Media was supplemented with anti-CD28 at 5 μg/ml. Cells were added to anti-CD3 (1 μg/well, 100 μl/well) coated U bottom cell culture plates according to the layout below, 200 μl/well in different PBMC:MSC ratios (1:10, 1:5, 1:2.5, 1:0 and 0:1) with a total amount of cells at 4*10^5 cells/well.
(§4) When plating controls, cells were spun down and diluted in M3 or M4 at 4*10^6 cells/ml, with a total amount of cells at 4*10^5 cells/well. 100 μl PBMCs were added per well. […] Medium was added to unstimulated control wells (700 μl/well). Cells were incubated for 24 or 72 hours at 37° C., 5% CO2. See also FIG. 28.
After 72 hours of incubation, CFSE stained cells were stained with CD4, CD8, CD80, CD206 and CD163 in staining buffer. Briefly, cells were transferred to V bottom plates, centrifuged at 360×g for 2 min. Cells were washed in PBS, centrifuged at 360×g for 2 min at 4° C. Supernatant was flicked off and surface markers were added. Cells were incubated at +4° C. for 20 minutes. After incubation, cells were washed 1× in PBS, centrifuged at 360×g for 2 min at 4° C. Cells were resuspended in PBS and acquired using the Attune Nxt flow cytometer. Compensation was performed using beads—AbC Total Compensation capture beads and negative beads for surface markers. For CFSE compensation, newly CFSE stained cells were used. Since compensation was done using both beads and cells, FSC and SSC were changed and adjusted to beads or cells. Lasers were not changed after compensation.
Graphs were performed using Prism 8 for Mac OS X (GraphPad Software, San Diego, CA, USA). Results are presented as mean values±SEM, if not otherwise stated. Dot plots were acquired from analysis using FlowJo v10.6.1 for Mac (BD, New Jersey, USA). The inhibitory effect of MSCs on PBMC proliferation was calculated according to the two formulas below: […]

[3] = system: human Peripheral Blood Mononuclear Cells (PBMCs); assay: PBMC co-culture: cell composition after 24 hours of activation (FACS analysis)
Description: as §1, §2, §3, §4
Following 24 hours of incubation, cells in FACS/Luminex plates were stained with antibodies detecting CD73, CD4, CD8, CD80, CD206, CD163 and PD-1 in staining buffer (PBS supplemented with 1% BSA). Briefly, cells were transferred to V bottom plates and centrifuged at 360×g for 2 min. Supernatant was transferred to a storage plate and put in −20° C. until analysis using Luminex. Cells were washed in PBS, centrifuged at 360×g for 2 min at 4° C. Supernatant was flicked off and antibodies against surface markers were added. Cells were incubated at +4° C. for 20 minutes (dark). After incubation, cells were washed 1× in PBS, centrifuged at 360×g for 2 min at 4° C. Cells were resuspended in PBS and acquired using the Attune Nxt flow cytometer. Compensation was performed using beads—AbC Total Compensation capture beads and negative beads. Since compensation was done using beads, FSC and SSC were changed before analysing samples and adjusted to cells. Lasers were not changed after compensation. 150 μl was analysed from each sample.

[4] = CsA 10 μg/ml, Prednisolone 125 nM
[5] = stimulated PBMCs, media 3, MSCs at all ratios, CsA 10 μg/ml, Prednisolone 125 nM

SMILES: C[C@]12C=CC(=O)C=C1CC[C@@H]1[C@@H]2[C@@H](O)C[C@@]2(C)[C@H]1CC[C@]2(O)C(=O)CO [Prednisolone]
- the other analysed cytokines, levels in supernatant ([1]; 12-plex cytokines not listed as inhibited): No inhibitory effect
- IL-6 levels in supernatant [1, 4]: inhibits
- IL12/IL23p40 levels in supernatant [1, 5]: inhibits
- TNF-α levels in supernatant [1, 5]: inhibits
- HGF levels in supernatant ([1]; stimulated PBMCs, media 3, PBMC:MSC 1:2.5, 1:5, 1:10, CsA 10 μg/ml, Prednisolone 125 nM): inhibits
- M1 expression levels ([2]; 72 hours): no effect
- M1 proliferation (CFSE) ([2]; 72 hours): No effect
- M2 expression levels ([2]; 72 hours): no effect
- M2 proliferation (CFSE) ([2]; 72 hours): No effect
- T helper cells (% CD4+ among T cells) ([2]; 72 hours of incubation, unsorted MSCs co-culture, CsA 10 μg/ml, Prednisolone 125 nM): no effect
- M2 macrophage expression [3, 4]: no effect
- T cell activation [3, 4]: only slightly inhibits
- expression level of M1 macrophages [3, 4]: no effect
- macrophage cell composition ([3]; Prednisolone 125 nM): did not have an effect
- T helper cells (% CD4+ lymphocytes or MFI of CD4+ lymphocytes) ([3]; aCD3/aCD28 activated PBMCs, media 3, unsorted MSCs at PBMC:MSC 1:2.5, 1:5, 1:10, Prednisolone 125 nM, vs control): higher levels
